From patent US20230212164A1, “ANNULATED 2-AMINO-3-CYANO THIOPHENES AND DERIVATIVES FOR THE TREATMENT OF CANCER” (BOEHRINGER INGELHEIM INTERNATIONAL GMBH, priority 2020, published 2023) come the findings set out here.

One assay deals with MiaPaCa-2 cells. Briefly: MiaPaCa-2 CTG proliferation assay (pancreatic cancer). The assay is classed as cell-based. To be noted: Homo sapiens, MIA PaCa-2, 120 h, 5 days, read-out: IC50 MiaPACA2. How it is done:
(§1) The proliferation assays started (day1) with seeding cells in flat bottom 384 well microtiter plates in 90 μL DMEM medium supplemented with 10% FBS at a density of 500 cells/well. Any other luminescence compatible plate format is possible. On day 2, 10 μL dilutions of the test compounds covering a concentration range between app. 0,1 and 10.000 nM were added to the cells. Cells were incubated for 5 days in a humidified, incubator with 5% CO2 at 37° C. On day 7 100 μl of Cell Titer Glow reagent (Cell titer Glo Luminescent Cat. No. G7571, Promega) were added to each well and incubated for additional 10 min at room temperature (with agitation). Luminescence was measured on a Wallac Victor using standard luminescence read out. IC50 values were calculated using standard Levenburg Marquard algorithms (GraphPad Prism).
A word on the IC50: it is the concentration that gives 50% inhibition. As to `C=CC(=O)N1[C@H](C)CC(Oc2cc(O[C@@H](C)[C@@H]3CCCN3C)nc(-c3noc([C@@]4(C)CCCc5sc(N)c(C#N)c54)n3)c2)C[C@H]1C` (stereo partly drawn) [Ia-86], the half-maximal inhibitory concentration (IC50) came to 13.8 nM.
As for `C=CC(=O)N1CCN(c2cc(-c3noc([C@@]4(C)CCCc5sc(N)c(C#N)c54)n3)nc(O[C@@H](C)[C@@H]3CCCN3C)n2)C[C@@H]1C` [Ia-61], the IC50 came to 4.23 nM.
On to `C=CC(=O)N1[C@H](C)CN(c2cc(-c3noc([C@@]4(C)CCCc5sc(N)c(C#N)c54)n3)nc(O[C@@H](C)[C@@H]3CCCN3C)n2)C[C@@H]1C` [Ia-64], for which the IC50 was 12.1 nM.
As to `C=CC(=O)N1CCN(c2cc(-c3noc([C@@]4(C)CCCc5sc(N)c(C#N)c54)n3)nc(O[C@@H](C)[C@@H]3CCCN3C)n2)[C@@H](C)C1` [Ia-54], the IC50 is 2.22 nM.

For another assay, the system named is NCI-H358 cells. In words: NCI-H358 CTG proliferation assay (120 h) (NSCLC). The assay is classed as cell-based. To be noted: Homo sapiens. As for the experimental part: NCI-H358 cells (ATCC No. CRL-5807) were dispensed into white bottom opaque 96 well plates (Perkin Elmer cat no. 5680) at a density of 2000 cells per well in 100 μL RPMI-1640 ATCC-Formulation (Gibco #A10491)+10% FCS. Cells were incubated overnight at 37° C. in a humidified tissue culture incubator at 5% CO2. Compounds (10 mM stock in DMSO) were added at logarithmic dose series using the HP Digital Dispenser D300 (Tecan), normalizing for added DMSO. For the T0 time point measurement, untreated cells were analyzed at the time of compound addition. Plates were incubated for 120 hours, and cell viability was measured using CellTiter-Glo luminescent cell viability reagent (Promega product code G7570). Viability (stated as percent of control) is defined as relative luminescence units RLU of each well divided by the RLU of cells in DMSO controls. IC50 values were determined from viability measurements by non-linear regression using a four parameter model.
Turning to `C=CC(=O)N1[C@H](C)CC(Oc2cc(O[C@@H](C)[C@@H]3CCCN3C)nc(-c3noc([C@@]4(C)CCCc5sc(N)c(C#N)c54)n3)c2)C[C@H]1C` (stereo partly drawn) [Ia-86], the midpoint of inhibition, the IC50, lay at 4.67 nM.
Same read-out and setting: then `C=CC(=O)N1CCN(c2cc(-c3noc([C@@]4(C)CCCc5sc(N)c(C#N)c54)n3)nc(O[C@@H](C)[C@@H]3CCCN3C)n2)C[C@@H]1C` [Ia-61], with 0.67 nM; and `C=CC(=O)N1[C@H](C)CN(c2cc(-c3noc([C@@]4(C)CCCc5sc(N)c(C#N)c54)n3)nc(O[C@@H](C)[C@@H]3CCCN3C)n2)C[C@@H]1C` [Ia-64], with 7.42 nM.
Regarding `C=CC(=O)N1CCN(c2cc(-c3noc([C@@]4(C)CCCc5sc(N)c(C#N)c54)n3)nc(O[C@@H](C)[C@@H]3CCCN3C)n2)[C@@H](C)C1` [Ia-54], the IC50 came out at 1.34 nM.

In a further assay the test system is SW837 cells. Briefly: SW 837 CTG proliferation assay (CRC). The assay is classed as cell-based. To be noted: Homo sapiens. As for the experimental part:
SW837 cells (ATCC #CCL-235) were grown in cell culture flasks (175 cm^2) using L-15 10% FCS, 1% L-Glu, 1xNEAA and 1× Na-Pyrovat. Cultures were incubated at 37° C. and 0% CO2 in a humidified atmosphere, with medium change or subcultivation 2-3 times a week. Materials used for the assay were CulturPlate-384, White Opaque 384-well Microplate, Sterile and Tissue Culture Treated (Perkin Elmer #6007680), Leibovitz L15 Medium and FBS #SH30071.03 (HyClone).
as §1, with “L-15” for “DMEM medium supplemented with”, “FCS, 1% L-Glu, 1xNEAA and 1×Na-Pyrovat” for “FBS”, “humidified, CO2 controlled (no CO2)” for “humidified,”, “incubator” for “incubator with 5% CO2”, “μL” for “μl”
The compound `C=CC(=O)N1[C@H](C)CC(Oc2cc(O[C@@H](C)[C@@H]3CCCN3C)nc(-c3noc([C@@]4(C)CCCc5sc(N)c(C#N)c54)n3)c2)C[C@H]1C` (stereo partly drawn) [Ia-86] displayed an IC50 of 2.08 nM.
On to `C=CC(=O)N1CCN(c2cc(-c3noc([C@@]4(C)CCCc5sc(N)c(C#N)c54)n3)nc(O[C@@H](C)[C@@H]3CCCN3C)n2)C[C@@H]1C` [Ia-61], for which the IC50 was found to be 0.63 nM.
`C=CC(=O)N1[C@H](C)CN(c2cc(-c3noc([C@@]4(C)CCCc5sc(N)c(C#N)c54)n3)nc(O[C@@H](C)[C@@H]3CCCN3C)n2)C[C@@H]1C` [Ia-64] returned an IC50 of 6.34 nM.
Regarding `C=CC(=O)N1CCN(c2cc(-c3noc([C@@]4(C)CCCc5sc(N)c(C#N)c54)n3)nc(O[C@@H](C)[C@@H]3CCCN3C)n2)[C@@H](C)C1` [Ia-54], the IC50 is 2.25 nM.

In another assay the target is KRASG12-dependent Ba/F3 cells (Homo sapiens, UniProt P01116, G12C, cells depend on it). In words: Ba/F3 cell model proliferation assay (AlamarBlue, 72 h). It is filed as cell-based. To be noted: Ba/F3 cells transduced with KRASG12C, read-out: IC50 Ba/F3 KRASG12C.
Sequence of KRASG12-dependent Ba/F3 cells (P01116 whole entry G12C): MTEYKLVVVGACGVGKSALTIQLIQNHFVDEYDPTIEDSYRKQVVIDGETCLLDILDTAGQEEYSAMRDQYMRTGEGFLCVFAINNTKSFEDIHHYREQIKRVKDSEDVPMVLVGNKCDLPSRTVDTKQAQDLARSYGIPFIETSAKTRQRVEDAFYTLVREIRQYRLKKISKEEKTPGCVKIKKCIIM
For the compound `C=CC(=O)N1[C@H](C)CC(Oc2cc(O[C@@H](C)[C@@H]3CCCN3C)nc(-c3noc([C@@]4(C)CCCc5sc(N)c(C#N)c54)n3)c2)C[C@H]1C` (stereo partly drawn) [Ia-86], the GI50 was found to be 7 nM.
As for `C=CC(=O)N1CCN(c2cc(-c3noc([C@@]4(C)CCCc5sc(N)c(C#N)c54)n3)nc(O[C@@H](C)[C@@H]3CCCN3C)n2)C[C@@H]1C` [Ia-61], the GI50 was found to be 2.3 nM.
Regarding `C=CC(=O)N1[C@H](C)CN(c2cc(-c3noc([C@@]4(C)CCCc5sc(N)c(C#N)c54)n3)nc(O[C@@H](C)[C@@H]3CCCN3C)n2)C[C@@H]1C` [Ia-64], the GI50 came to 12 nM.
On to `C=CC(=O)N1CCN(c2cc(-c3noc([C@@]4(C)CCCc5sc(N)c(C#N)c54)n3)nc(O[C@@H](C)[C@@H]3CCCN3C)n2)[C@@H](C)C1` [Ia-54], for which the GI50 is 4.3 nM.

A further assay concerns pERK (Thr202/Tyr204) in NCI-H358_Cas9_SOS2 (SOS2 knocked). Briefly: ERK phosphorylation assay 2 (AlphaLISA SureFire Ultra p-ERK1/2). The note with it: read-out: IC50 H358 pERK, ERK phosphorylation assay 2 (values marked with *).
Method: ERK Phosphorylation Assay
Low IC50 values in this assay setting are indicative of high potency of the compounds according to the invention.
GFP positive cells were collected and further expanded. These GFP-positive cell pools were single-cell diluted and SOS2 knock-out clones were identified via Western-blot and genomic DNA sequencing analysis.
Materials Used for the Assay:
AlphaLISA SureFire Ultra p-ERK1/2 (Thr202/Tyr204) Assay Kit (ALSU-PERK-A500)
Cells are seeded at 40,000 cells per well in /60 μL of RPMI with 10% FBS, non-essential amino acids, pyruvate and glutamax in Greiner TC 384 plates. The cells are incubated for 1 h at room temperature and then incubated overnight in an incubator at 37° C. and 5% CO2 in a humidified atmosphere. 60 nL compound solution (10 mM DMSO stock solution) is then added using a Labcyte Echo 550 device. After a 1 h incubation in the aforementioned incubator the medium is removed after centrifugation and the cells lysed by addition of 20 μL of 1.6-fold lysis buffer from the AlphaLISA SureFire Ultra pERK1/2 (Thr202/Tyr204) Assay Kit with added protease inhibitors, 100 nM trametinib+100 nM staurosporine. After 20 minutes of incubation at room temperature with shaking, 6 μL of each lysate sample is transferred to a 384-well Proxiplate and analyzed for pERK (Thr202/Tyr204) with the AlphaLISA SureFire Ultra pERK1/2 (Thr202/Tyr204) Assay Kit. 3 μL Acceptor Mix and 3 μL Donor Mix are added under subdued light and incubated for 2 h at room temperature in the dark, before the signal is measured on a PerkinElmer Envision HTS Multilabel Reader. The raw data were imported into and analyzed with the Boehringer Ingelheim proprietary software MegaLab (curve fitting based on the program PRISM, GraphPad Inc.).
As for `C=CC(=O)N1[C@H](C)CC(Oc2cc(O[C@@H](C)[C@@H]3CCCN3C)nc(-c3noc([C@@]4(C)CCCc5sc(N)c(C#N)c54)n3)c2)C[C@H]1C` (stereo partly drawn) [Ia-86], the IC50 was 3.9 nM.
For `C=CC(=O)N1CCN(c2cc(-c3noc([C@@]4(C)CCCc5sc(N)c(C#N)c54)n3)nc(O[C@@H](C)[C@@H]3CCCN3C)n2)C[C@@H]1C` [Ia-61], the IC50 was determined as 1.3 nM.
On to `C=CC(=O)N1[C@H](C)CN(c2cc(-c3noc([C@@]4(C)CCCc5sc(N)c(C#N)c54)n3)nc(O[C@@H](C)[C@@H]3CCCN3C)n2)C[C@@H]1C` [Ia-64], for which the IC50 amounted to 3.5 nM.
Consider `C=CC(=O)N1CCN(c2cc(-c3noc([C@@]4(C)CCCc5sc(N)c(C#N)c54)n3)nc(O[C@@H](C)[C@@H]3CCCN3C)n2)[C@@H](C)C1` [Ia-54], for which the IC50 turned out to be 2.2 nM.

A further assay deals with T1, protein-protein interaction between SOS1 and KRAS G12C (Homo sapiens, UniProt P01116, C118S/C51S/C80L/G12C).
T1 construct: His6 (N)
T1 sequence (P01116 1-169 isoform P01116-2 G12C/C51S/C80L/C118S): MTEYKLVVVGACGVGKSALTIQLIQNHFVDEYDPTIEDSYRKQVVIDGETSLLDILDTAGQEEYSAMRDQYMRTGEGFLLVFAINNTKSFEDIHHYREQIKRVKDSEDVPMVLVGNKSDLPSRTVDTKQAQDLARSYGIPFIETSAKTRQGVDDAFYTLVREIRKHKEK
Briefly: KRAS::SOS1 AlphaScreen binding assay. The note with it: Table 36. Background: Bead proximity is the source of the signal in Alpha formats.
Compound `C=CC(=O)N1[C@H](C)CC(Oc2cc(O[C@@H](C)[C@@H]3CCCN3C)nc(-c3noc([C@@]4(C)CCCc5sc(N)c(C#N)c54)n3)c2)C[C@H]1C` (stereo partly drawn) [Ia-86] had an IC50 of 2 nM.
`C=CC(=O)N1CCN(c2cc(-c3noc([C@@]4(C)CCCc5sc(N)c(C#N)c54)n3)nc(O[C@@H](C)[C@@H]3CCCN3C)n2)C[C@@H]1C` [Ia-61] gave a half-inhibitory concentration (IC50) of 1.6 nM.
The compound `C=CC(=O)N1[C@H](C)CN(c2cc(-c3noc([C@@]4(C)CCCc5sc(N)c(C#N)c54)n3)nc(O[C@@H](C)[C@@H]3CCCN3C)n2)C[C@@H]1C` [Ia-64] displayed an IC50 of 2.2 nM.
`C=CC(=O)N1CCN(c2cc(-c3noc([C@@]4(C)CCCc5sc(N)c(C#N)c54)n3)nc(O[C@@H](C)[C@@H]3CCCN3C)n2)[C@@H](C)C1` [Ia-54] displayed an IC50 of 1.6 nM.
